In article PMC4717870, “Evaluation of fluoropyruvate as nucleophile in reactions catalysed by N-acetyl neuraminic acid lyase variants: scope, limitations and stereoselectivity” (Organic & Biomolecular Chemistry, 2015):

Biological target: T1, S. aureus NAL (Staphylococcus aureus, UniProt Q2G160)
T1 construct: gene nanA; crystal structure
Assay: X-ray crystal structure of the complex
Format: binding
Conditions: covalent; Z-configured enamine observed in the active site

T1 sequence (Q2G160 whole entry): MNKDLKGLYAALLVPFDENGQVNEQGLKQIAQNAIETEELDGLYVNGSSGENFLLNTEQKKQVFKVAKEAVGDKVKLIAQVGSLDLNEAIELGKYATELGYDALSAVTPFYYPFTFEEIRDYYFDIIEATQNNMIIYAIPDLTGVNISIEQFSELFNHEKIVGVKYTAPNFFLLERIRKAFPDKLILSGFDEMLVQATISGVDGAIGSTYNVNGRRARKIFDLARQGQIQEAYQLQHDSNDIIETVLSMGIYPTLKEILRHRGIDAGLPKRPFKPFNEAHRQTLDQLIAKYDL

Structure (SMILES): O=C(O)C(=O)CF [fluoropyruvate]
- X-ray crystal structure of the complex: the crystal structure of S. aureus NAL was determined in complex with fluoropyruvate
